Results reported in ChEMBL document CHEMBL5653615 (J Biol Chem, 2013).

How the values were obtained:
[1] = molecular target: T1, Muscle, skeletal receptor tyrosine-protein kinase (Homo sapiens) (UniProt O15146); test: Inhibition of human MUSK at 18.6 nM by HotSpot assay relative to control
T1 sequence (whole entry): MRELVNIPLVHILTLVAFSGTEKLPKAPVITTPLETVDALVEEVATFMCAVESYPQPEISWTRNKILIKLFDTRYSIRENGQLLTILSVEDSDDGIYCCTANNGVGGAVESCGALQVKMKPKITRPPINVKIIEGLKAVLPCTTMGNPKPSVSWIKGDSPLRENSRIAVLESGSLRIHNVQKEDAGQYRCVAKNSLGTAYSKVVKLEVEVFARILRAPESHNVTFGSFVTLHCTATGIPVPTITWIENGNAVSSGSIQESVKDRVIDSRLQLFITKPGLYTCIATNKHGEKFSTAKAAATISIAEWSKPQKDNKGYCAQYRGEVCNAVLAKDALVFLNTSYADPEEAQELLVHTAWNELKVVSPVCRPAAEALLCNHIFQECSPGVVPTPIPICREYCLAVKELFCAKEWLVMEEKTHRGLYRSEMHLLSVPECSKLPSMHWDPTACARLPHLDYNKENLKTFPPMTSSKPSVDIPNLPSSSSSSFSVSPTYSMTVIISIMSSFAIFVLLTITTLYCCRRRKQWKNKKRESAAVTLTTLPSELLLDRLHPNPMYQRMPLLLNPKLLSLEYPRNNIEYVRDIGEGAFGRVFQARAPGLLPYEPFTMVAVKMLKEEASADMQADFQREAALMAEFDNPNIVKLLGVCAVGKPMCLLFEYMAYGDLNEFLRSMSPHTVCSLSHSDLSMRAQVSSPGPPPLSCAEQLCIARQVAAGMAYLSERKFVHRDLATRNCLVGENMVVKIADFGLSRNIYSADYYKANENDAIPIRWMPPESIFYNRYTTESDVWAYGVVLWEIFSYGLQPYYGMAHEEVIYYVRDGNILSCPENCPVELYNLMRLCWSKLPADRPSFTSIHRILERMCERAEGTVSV

[2] = molecular target: T2, Testis-specific serine/threonine-protein kinase 2 (Homo sapiens) (UniProt Q96PF2); test: Inhibition of human TSSK2 at 18.6 nM by HotSpot assay relative to control
T2 sequence (whole entry): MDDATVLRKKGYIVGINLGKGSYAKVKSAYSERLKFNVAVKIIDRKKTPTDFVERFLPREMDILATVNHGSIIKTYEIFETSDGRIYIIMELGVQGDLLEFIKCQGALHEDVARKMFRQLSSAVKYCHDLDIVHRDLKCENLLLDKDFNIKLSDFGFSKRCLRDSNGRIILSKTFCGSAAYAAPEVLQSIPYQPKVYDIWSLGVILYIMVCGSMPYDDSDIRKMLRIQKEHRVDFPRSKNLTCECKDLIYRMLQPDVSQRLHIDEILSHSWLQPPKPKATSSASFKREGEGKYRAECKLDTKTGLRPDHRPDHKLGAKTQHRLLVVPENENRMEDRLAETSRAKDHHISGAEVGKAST

[3] = molecular target: Calcium/calmodulin-dependent protein kinase type 1D (Homo sapiens) (UniProt Q8IU85); test: Inhibition of human CAMK1d at 1.82 nM by HotSpot assay relative to control
Chain of Calcium/calmodulin-dependent protein kinase type 1D (Homo sapiens) (Q8IU85 whole entry, looked up): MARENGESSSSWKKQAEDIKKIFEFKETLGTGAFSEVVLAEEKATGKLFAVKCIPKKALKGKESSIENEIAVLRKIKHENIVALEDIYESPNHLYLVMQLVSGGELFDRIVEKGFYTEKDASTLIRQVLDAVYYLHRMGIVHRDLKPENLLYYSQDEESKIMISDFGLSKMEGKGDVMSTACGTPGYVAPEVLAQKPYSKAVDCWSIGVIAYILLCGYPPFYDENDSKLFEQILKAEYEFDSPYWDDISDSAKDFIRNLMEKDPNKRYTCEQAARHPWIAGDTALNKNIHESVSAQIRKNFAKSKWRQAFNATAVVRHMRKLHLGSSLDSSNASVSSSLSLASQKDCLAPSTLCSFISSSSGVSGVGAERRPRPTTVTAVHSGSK

[4] = molecular target: T3, Tyrosine-protein kinase ITK/TSK (Homo sapiens) (UniProt Q08881); test: Inhibition of human ITK at 1.82 nM by HotSpot assay relative to control
T3 sequence (whole entry): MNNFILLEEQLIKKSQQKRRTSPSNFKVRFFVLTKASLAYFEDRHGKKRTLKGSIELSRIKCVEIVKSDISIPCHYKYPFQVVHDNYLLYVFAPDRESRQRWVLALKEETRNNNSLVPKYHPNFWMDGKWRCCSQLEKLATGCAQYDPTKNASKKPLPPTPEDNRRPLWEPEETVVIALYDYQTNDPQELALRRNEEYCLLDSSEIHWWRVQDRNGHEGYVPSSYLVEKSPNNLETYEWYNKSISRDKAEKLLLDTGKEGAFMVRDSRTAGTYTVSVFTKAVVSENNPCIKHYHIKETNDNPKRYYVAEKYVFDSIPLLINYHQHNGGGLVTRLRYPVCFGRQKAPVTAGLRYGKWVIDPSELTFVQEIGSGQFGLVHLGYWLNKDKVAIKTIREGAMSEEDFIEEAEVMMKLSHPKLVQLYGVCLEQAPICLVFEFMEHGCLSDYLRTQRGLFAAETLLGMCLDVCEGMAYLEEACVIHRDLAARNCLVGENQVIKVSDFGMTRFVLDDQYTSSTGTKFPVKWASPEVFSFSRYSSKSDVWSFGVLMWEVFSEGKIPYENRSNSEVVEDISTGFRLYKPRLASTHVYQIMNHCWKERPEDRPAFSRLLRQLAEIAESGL

[5] = molecular target: T4, MAP/microtubule affinity-regulating kinase 4 (Homo sapiens) (UniProt Q96L34); test: Inhibition of human MARK4 at 1.82 nM by HotSpot assay relative to control
T4 sequence (whole entry): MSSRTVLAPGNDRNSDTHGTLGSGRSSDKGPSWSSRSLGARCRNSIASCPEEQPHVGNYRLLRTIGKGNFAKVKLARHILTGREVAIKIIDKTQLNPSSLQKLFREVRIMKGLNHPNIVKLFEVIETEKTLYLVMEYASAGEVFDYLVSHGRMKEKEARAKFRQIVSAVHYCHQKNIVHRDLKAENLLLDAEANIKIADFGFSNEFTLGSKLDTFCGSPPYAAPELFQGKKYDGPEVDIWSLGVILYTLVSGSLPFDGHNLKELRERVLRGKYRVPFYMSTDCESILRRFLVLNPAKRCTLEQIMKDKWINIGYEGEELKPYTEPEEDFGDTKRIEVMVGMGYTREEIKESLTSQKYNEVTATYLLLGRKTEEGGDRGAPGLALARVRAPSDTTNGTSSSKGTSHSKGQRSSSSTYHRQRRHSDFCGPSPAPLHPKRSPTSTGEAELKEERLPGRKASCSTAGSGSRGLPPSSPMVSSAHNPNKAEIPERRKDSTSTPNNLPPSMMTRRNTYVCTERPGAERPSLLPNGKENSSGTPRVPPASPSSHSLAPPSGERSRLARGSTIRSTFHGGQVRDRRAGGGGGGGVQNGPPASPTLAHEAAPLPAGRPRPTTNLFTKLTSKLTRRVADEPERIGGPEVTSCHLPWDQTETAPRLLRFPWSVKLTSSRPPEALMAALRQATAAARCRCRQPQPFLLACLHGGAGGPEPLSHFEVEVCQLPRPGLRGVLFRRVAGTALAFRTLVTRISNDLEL

[6] = molecular target: Protein-tyrosine kinase 2-beta (Homo sapiens) (UniProt Q14289); test: Inhibition of human PYK2 at 1.82 nM by HotSpot assay relative to control
Chain of Protein-tyrosine kinase 2-beta (Homo sapiens) (Q14289 whole entry, looked up): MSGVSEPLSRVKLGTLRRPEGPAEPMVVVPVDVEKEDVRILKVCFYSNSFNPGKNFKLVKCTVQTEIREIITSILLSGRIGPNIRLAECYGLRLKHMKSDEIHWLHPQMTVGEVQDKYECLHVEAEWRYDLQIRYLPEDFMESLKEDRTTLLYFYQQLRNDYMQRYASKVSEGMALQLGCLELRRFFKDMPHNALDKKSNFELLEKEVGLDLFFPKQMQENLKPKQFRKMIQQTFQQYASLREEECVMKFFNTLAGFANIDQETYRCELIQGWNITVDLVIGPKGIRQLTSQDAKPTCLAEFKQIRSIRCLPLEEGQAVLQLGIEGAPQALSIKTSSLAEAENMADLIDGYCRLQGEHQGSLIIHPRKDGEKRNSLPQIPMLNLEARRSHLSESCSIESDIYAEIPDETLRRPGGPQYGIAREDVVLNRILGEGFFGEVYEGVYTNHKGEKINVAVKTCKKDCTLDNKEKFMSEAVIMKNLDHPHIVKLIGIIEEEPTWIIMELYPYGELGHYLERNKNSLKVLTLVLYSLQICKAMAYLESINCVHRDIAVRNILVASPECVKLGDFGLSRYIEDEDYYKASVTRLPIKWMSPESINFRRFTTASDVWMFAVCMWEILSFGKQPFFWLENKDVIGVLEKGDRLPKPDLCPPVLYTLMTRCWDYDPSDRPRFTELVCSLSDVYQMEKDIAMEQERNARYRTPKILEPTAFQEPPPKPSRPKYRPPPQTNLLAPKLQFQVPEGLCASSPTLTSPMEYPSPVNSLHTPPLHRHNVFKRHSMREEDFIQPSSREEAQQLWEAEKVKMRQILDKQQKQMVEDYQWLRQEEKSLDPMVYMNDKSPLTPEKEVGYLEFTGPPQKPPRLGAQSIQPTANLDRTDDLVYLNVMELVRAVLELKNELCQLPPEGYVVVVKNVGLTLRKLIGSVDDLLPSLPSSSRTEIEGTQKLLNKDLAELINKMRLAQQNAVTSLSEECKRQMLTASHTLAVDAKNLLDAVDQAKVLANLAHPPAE

Compound: C[C@]1(O)C[C@@H](c2nc(-c3ccc4ccc(-c5ccccc5)nc4c3)c3c(N)nccn32)C1
- inhibition [1]: 1.47%
- inhibition [2]: -3.7%

Compound: C[C@@]1(C(=O)Nc2ccc(F)nc2)CCCN1c1nc(Nc2cc(C3CC3)n[nH]2)c2cccn2n1
- inhibition [3]: -3.77%
- inhibition [4]: -7.19%
- inhibition [5]: 2.64%
- inhibition [6]: 1.81%
